Source: paper PMC5994915 (Bioorganic & medicinal chemistry, 2017)

Experiments:
[1] = system: class IIa HDACs in HEL cells; settings: Boc-Lys (triflouroacetyl)-AMC substrate, n ≥ 2
[2] = system: class I HDACs in HEL cells; settings: Boc-Lys (acetyl)-AMC substrate, n ≥ 2

## Nc1ccccc1NC(=O)c1ccc(NC(=O)CN2C(=O)C3(OCCCO3)c3cc(Br)ccc32)cc1 [9a, N-(2-aminophenyl)-4-(2-(5-bromo-2-oxospiro[indoline-3,2′-[1,3]dioxan]-1-yl)acetamido)ben-zamide]
[1]
  HDAC class IIa cellular IC50: not active
[2]
  HDAC class I cellular IC50: not active

## Nc1ccc(-c2cccs2)cc1NC(=O)c1ccc(CNC(=O)CN2C(=O)C3(OCCCO3)c3cc(Cl)ccc32)cc1 [23a, N-(2-Amino-5-(thiophen-2-yl)phenyl)-4-((2-(5-chloro-2-oxospiro[indoline-3,2′-[1,3]dioxan]-1-yl)acetamido)methyl)benza-mide]
[1]
  HDAC class IIa cellular IC50: not active
[2]
  HDAC class I cellular IC50: not active
